Assay results taken from patent publication US20250213561A1, “SELECTIVE HYPOTHALAMUS PERMEABLE HDAC6 INHIBITORS FOR TREATMENT OF LEPTIN-RESISTANT OBESITY” (The Children’s Medical Center Corporation, priority 2022, published 2025).

Tests used:
[1] = system: DIO mice; experiment: CLAMS metabolic cages in DIO mice; type: in vivo; conditions: for energy expenditure: 3 days, ACY775 10 mg/kg, ACY738 50 mg/kg i.p.
Procedure: Diet induced obese (DIO) mice were placed into metabolic cages and received ACY775 (10 mg/kg, i.p., n=7) or vehicle (n=8) once a day for 3 days. Energy expenditure, respiratory exchange ratios (RER; VCO2/VO2), ambulatory count (physical activity) from each group of mice were determined. Bar graphs represent average of two dark (8-20 and 32-44 hr) and two light cycles ([…]).
Comprehensive Lab Animal Monitoring System (CLAMS) was used to measure metabolic parameters such as energy expenditure (EE) and respiratory exchange ratio (RER) and physical activity levels in Vehicle- and ACY775-treated mice.

[2] = system: HDAC6; experiment: Ac-tubulin immunoblotting in HEK293 cells; type: cell-based
[3] = system: DIO mice; experiment: Single dose food intake in 24 h fasted DIO mice; type: in vivo; conditions: ACY775 10 mg/kg, ACY738 50 mg/kg i.p.
Procedure: Food intake was analyzed hourly until 3:00 am. […] DEXA scans were performed in two different cohorts.

[4] = system: HDAC6-KO DIO mice; experiment: Chronic treatment of DIO WT versus HDAC6 KO mice; type: in vivo; conditions: for blood glucose, serum insulin and leptin levels, WT versus HDAC6 KO / fat mass and fat %, WT versus HDAC6 KO / food intake, WT versus HDAC6 KO / glucose tolerance and insulin sensitivity (GTT, ITT), WT versus HDAC6 KO / lean mass, WT versus HDAC6 KO / body weight, WT versus HDAC6 KO: DIO mice; for body weight, WT versus HDAC6 KO: 3 weeks, ACY775 10, ACY738 50, Tubastatin A 25 mg/kg/day i.p.
[5] = system: p-STAT3^Tyr705; experiment: Leptin-stimulated hypothalamic STAT3 Tyr705 phosphorylation in DIO mice; type: in vivo; conditions: 45 minutes after leptin 1 mg/kg i.p.
Procedure: DIO mice were pretreated with ACY775 (10 mg/kg/day, i.p.) or vehicle for 3 days, which was followed by a last injection of ACY775 (or vehicle) in the morning of fourth day. 6 hours later mice were injected with saline or leptin (1 mg/kg, i.p.) and hypothalamus were extracted after 45 minutes following the leptin injection. Representative immunoblots for STAT3^Tyr705 phosphorylation and total STAT3 from the hypothalamus. Quantification of the ratio of p-STAT3^Tyr705 to total-STAT3 signal in the immunoblots. The results were reproduced in three independent experiments. The results were analyzed hourly.
DIO mice were pretreated with ACY775 (10 mg/kg/day, i.p.) or vehicle for 3 days, which was followed by a last injection of ACY775 (or vehicle) in the morning of fourth day. 6 hours later mice were injected with saline or leptin (1 mg/kg, i.p.) and the hypothalamus were extracted after 45 minutes following the leptin injection.
6 hours later mice were injected with saline or leptin (1 mg/kg, i.p.) and hypothalamus were extracted after 45 minutes following the leptin injection. Immunoblots for STAT3^Tyr705 phosphorylation and total STAT3 from the hypothalamus were made to quantify the ratio of p-STAT3^Tyr705 to total-STAT3 signal in the immunoblots. The results were reproduced in two independent experiments.
DIO mice were pretreated with ricolinostat (50 mg/kg/day, i.p.) or vehicle 3 days, which was followed by a last injection of ricolinostat (or vehicle) in the morning of fourth day. 6 hours later mice were injected with saline or leptin (1 mg/kg, i.p.) and the hypothalamus were extracted after 45 minutes following the leptin injection. Immunoblots were performed for STAT3^Tyr705 phosphorylation and total STAT3 from the hypothalamus. The ratio of p-STAT3^Tyr705 to total STAT3 signal in the immunoblots was quantified.

[6] = molecular target: HDAC6 (Mus musculus (Mouse), UniProt Q9Z2V5); experiment: LepRb acetyl-lysine immunoblotting in transfected HEK293 cells; type: cell-based; conditions: 200 nM, 0.5-3 h
Procedure: HEK293 cells were transfected with the plasmids and were treated with vehicle or ACY775. Subsequently Flag immunoprecipitation was used to pull down LepRb followed by Ac^Lys or Flag immunoblotting.
To test whether HDAC6 can deacetylate LepRb, HEK293 cells were transfected with plasmids (LepRb-Flag, HA-p300 and HDAC6-myc). LepRb was immunoprecipitated by Flag antibodies, which was followed by acetyl-lysine (Ac^Lys) or immunoblottings.
Next, cells were transfected with plasmids (LepRb-Flag, HA-p300 and HDAC6-myc) and subsequently treated with ACY775 ([…]) for 0.5, 1, 2 and 3 h. […] Next, to investigate whether HDAC6 has any effect on LepRb tyrosine phosphorylation, which is indicative of LepRb activation, HEK 293 cells were transfected with LepRb and HDAC6-Myc plasmids in the indicated order and the cells stimulated with leptin (200 ng/ml) for 10 and 60 minutes. The Flag immunoprecipitates were exposed to phospho-tyrosine (p^Tyr) immunoblotting.

[7] = system: HDAC6 in AgRP neurons; experiment: DIO mice with HDAC6 depleted in AgRP neurons (HDAC6^Agrp-Δ); type: in vivo
Procedure: Design, validation, and stereotaxic injection of AAV viral vector carrying the guide RNAs targeting the mouse HDAC6 genomic locus. Three designed sgRNAs were concatenated and constructed into an AAV vector carrying a cre-enabled mCherry fluorescent marker.
(§1) Following the bilateral injection of AAV-sgHDAC6 into the arcuate nucleus of Agrp-ires-cre::LSL-Cas9-GFP (Agrp-Cre^+/−::Cas9^+/−) or control LSL-Cas9-GFP (Cas9^+/−) mice, immunostaining to detect the expression of mCherry and GFP was performed. AAV-sg-HDAC6 injected Agrp-Cre^+/−::Cas9^+/− (HDAC6^Agrp-Δ) and Cas9^+/−(HDAC6^WT) DIO mice (n=7 for each group) were fasted for 24 hours, and injected with ACY775 (10 mg/kg. i.p). Hourly total dark cycle food intake (g) (n=7 for each group) of these mice after ACY775 injection was measured. Body weight of AAV-sg-HDAC6 injected HDAC6^Agrp-Δ (n=11) and HDAC6^WT (n=6) mice were measured during 3 weeks of ACY775 (10 mg/kg/day, i.p.) treatment. Daily average food intake of HDAC6^Agrp-Δ (n=11) and HDAC6^WT (n=6) mice was measured during 3 weeks of ACY775 (10 mg/kg/day, i.p.) treatment. 24-hour food intake average of HDAC6^Agrp-Δ and HDAC6^WT mice during the 3 weeks of ACY775 treatment was assessed. Serum leptin level (ng/ml) of HDAC6^Agrp-Δ and HDAC6^WT mice after 2 weeks of ACY775 treatment (n=13 for HDAC6^WT and n=18 for HDAC6^Agrp-Δ) was measured. Lean mass (g); fat mass; and fat percentage (%) of HDAC6^Agrp-Δ and HDAC6^WT DIO mice after 3 weeks of ACY775 treatment was measured by DEXA scan. The HDAC6 inhibitor responsive neurons in the dorsomedial hypothalamus (DMH) were assessed. Immunostaining and quantification of c-Fos expression was performed in the DMH of DIO mice following one-time ACY775 treatment (10 mg/kg, i.p.).

[8] = system: DMH neurons; experiment: c-Fos immunostaining in DMH of DIO mice; type: in vivo; conditions: fasting, acute 10 mg/kg i.p.
Procedure: as §1, with “Immunostaining and quantification of c-Fos expression was performed in the DMH of DIO mice following one-time ACY775 treatment (10 mg/kg, i.p.).” left out

Sequence of HDAC6 (Mus musculus (Mouse), UniProt Q9Z2V5) (Q9Z2V5 whole entry): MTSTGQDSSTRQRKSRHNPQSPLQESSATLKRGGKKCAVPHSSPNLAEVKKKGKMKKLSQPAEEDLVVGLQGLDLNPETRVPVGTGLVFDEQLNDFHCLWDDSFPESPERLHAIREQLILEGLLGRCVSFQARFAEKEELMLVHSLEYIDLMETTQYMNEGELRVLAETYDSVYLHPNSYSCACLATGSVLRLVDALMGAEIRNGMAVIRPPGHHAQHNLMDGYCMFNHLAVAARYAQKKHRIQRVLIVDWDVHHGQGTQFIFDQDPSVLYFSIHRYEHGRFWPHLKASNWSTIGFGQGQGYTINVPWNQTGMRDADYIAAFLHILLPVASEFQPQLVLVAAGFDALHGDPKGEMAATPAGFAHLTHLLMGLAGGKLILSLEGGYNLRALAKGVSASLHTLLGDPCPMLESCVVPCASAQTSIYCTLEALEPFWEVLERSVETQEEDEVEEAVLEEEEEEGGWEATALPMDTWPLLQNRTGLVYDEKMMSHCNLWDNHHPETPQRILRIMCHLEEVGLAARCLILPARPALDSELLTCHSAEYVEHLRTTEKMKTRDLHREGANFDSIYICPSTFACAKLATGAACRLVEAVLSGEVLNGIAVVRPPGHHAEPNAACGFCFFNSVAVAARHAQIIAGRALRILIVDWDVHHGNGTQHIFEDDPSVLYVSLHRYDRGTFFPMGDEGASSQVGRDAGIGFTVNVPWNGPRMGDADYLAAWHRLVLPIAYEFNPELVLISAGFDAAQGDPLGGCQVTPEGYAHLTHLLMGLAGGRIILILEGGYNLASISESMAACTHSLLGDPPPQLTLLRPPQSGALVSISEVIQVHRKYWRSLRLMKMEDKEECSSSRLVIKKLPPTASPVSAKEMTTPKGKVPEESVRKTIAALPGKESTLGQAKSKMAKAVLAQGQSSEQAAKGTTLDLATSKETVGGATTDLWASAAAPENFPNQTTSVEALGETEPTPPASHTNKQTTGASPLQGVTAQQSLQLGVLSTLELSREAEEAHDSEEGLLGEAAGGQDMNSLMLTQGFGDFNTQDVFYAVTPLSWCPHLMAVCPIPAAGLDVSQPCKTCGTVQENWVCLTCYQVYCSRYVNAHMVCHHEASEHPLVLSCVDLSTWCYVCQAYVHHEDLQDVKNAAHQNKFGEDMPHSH

Compound | energy expenditure [1] | tubulin acetylation (HDAC6 inhibitor activity in cells) [2] | food intake after a single dose [3] | body weight in HDAC6 KO mice ([4]; DIO HDAC6 KO mice) | blood glucose, serum insulin and leptin levels, WT versus HDAC6 KO [4] | fat mass and fat %, WT versus HDAC6 KO [4] | food intake, WT versus HDAC6 KO [4] | glucose tolerance and insulin sensitivity (GTT, ITT), WT versus HDAC6 KO [4] | lean mass, WT versus HDAC6 KO [4] | body weight, WT versus HDAC6 KO [4] | leptin-stimulated hypothalamic p-STAT3^Tyr705 [5] | deacetylation of LepRb [6] | physical activity level ([1]; dark and light cycles) | suppression of food intake after a single dose ([7]; HDAC6^Agrp-Δ DIO mice, 10 mg/kg i.p.) | anti-obesity effects on chronic treatment ([7]; HDAC6^Agrp-Δ versus HDAC6^WT DIO mice) | c-fos positive cell number in the DMH [8]
O=C(NO)c1cnc(NC2(c3ccccc3)CC2)nc1 [ACY738] | higher energy expenditure in light cycle, though without significant difference in dark cycle | inhibits the HDAC6 activity | significantly reduced/blocked the food intake | slight decrease | all significantly higher in the ACY738-treated HDAC6 KO group | significantly lower in the wt group compared to the HDAC6 KO group | significantly higher in the HDAC6 KO group | did not improve glucose tolerance and increase insulin sensitivity in the HDAC6 KO mice | not different | major difference | substantially increased |  |  |  |  | 
O=C(NO)c1cnc(NC2(c3cccc(F)c3)CCCCC2)nc1 [ACY775, 2-[[1-(3-fluorophenyl)cyclohexyl]amino]-N-hydroxy-5-pyrimidinecarboxamide] | higher in the both dark and light cycle | increases tubulin acetylation | significantly reduced/blocked the food intake |  | all significantly higher in the ACY775-treated HDAC6 KO group | significantly lower in the wt group compared to the HDAC6 KO group | blocked in the HDAC6 KO mice | could not increase glucose tolerance and insulin sensitivity in the HDAC6 KO mice | not different | highly significant decrease in the bodyweight of the WT DIO mice when compared to HDAC6 KO DIO mice | increased significantly | can completely block deactylation of LepRb | not different | almost complete resistance to ACY755-induced suppression of food intake | Significantly attenuated effects | major increase in c-fos positive cell number
